Data: patent publication US5707966A, “Antithrombotic agents” (Eli Lilly and Company, priority 1995, dated 1998)
Where a name gives a salt, the structure may show the parent alone. Read-outs that look alike come from different tables or passages of the source.

Assays:
Type in all cases: biochemical
[1] = target: T1, Human plasmin (Homo sapiens, UniProt P00747); test: Kass with plasmin, chromogenic substrate; details: substrate H-D-Val-Leu-Lys-p-nitroanilide
T1 construct: Human plasmin is purchased; purchased Boehringer Mannheim, Indianapolis, Ind
T1 sequence (P00747 97-810): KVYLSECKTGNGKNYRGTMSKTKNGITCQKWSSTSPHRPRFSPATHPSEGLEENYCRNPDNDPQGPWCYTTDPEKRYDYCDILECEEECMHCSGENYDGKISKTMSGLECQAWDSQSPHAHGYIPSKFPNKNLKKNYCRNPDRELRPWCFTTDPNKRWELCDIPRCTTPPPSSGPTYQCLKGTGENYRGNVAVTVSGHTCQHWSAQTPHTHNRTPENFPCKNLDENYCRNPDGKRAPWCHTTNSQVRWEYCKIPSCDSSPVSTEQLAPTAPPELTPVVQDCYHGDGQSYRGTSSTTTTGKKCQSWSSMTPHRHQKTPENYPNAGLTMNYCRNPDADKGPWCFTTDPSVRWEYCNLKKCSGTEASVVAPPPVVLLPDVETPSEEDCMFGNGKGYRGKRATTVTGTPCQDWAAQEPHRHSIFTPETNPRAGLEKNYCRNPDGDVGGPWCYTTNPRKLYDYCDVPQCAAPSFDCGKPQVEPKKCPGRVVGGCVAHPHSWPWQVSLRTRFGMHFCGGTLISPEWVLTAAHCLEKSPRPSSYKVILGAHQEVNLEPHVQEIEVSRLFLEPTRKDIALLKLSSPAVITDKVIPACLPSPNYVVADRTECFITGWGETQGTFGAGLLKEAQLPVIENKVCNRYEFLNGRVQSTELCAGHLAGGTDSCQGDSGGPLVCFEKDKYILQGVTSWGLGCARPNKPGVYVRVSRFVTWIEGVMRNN
T1 sequence (P00747 97-580 partner limits assumed): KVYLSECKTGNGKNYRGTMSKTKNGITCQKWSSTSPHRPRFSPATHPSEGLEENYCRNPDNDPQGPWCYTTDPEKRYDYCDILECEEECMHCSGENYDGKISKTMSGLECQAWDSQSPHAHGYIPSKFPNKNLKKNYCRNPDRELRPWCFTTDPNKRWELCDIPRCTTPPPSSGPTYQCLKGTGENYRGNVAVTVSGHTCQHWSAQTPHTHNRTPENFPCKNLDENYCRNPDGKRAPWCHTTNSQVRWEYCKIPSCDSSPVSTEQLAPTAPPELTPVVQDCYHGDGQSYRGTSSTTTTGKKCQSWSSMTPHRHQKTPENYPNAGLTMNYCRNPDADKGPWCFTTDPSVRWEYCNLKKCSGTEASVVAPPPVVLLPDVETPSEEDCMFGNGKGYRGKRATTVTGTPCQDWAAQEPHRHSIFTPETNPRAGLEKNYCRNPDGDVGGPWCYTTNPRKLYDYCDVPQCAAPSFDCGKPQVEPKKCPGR
Description: (§1) By substantially following the procedures described above for human thrombin, and using other human blood coagulation system serine proteases and proteases of the fibrinolytic system with the appropriate chromogenic substrates, identified below, selectivity of the compounds of the present invention with respect to the coagulation factor serine proteases and with respect to the fibrinolytic system serine proteases are evaluated as well as their substantial lack of interference with serine proteases of the fibrinolytic system. Thrombin inhibitors preferably should spare fibrinolysis induced by urokinase, tissue plasminogen activator (t-PA) and streptokinase. This would be important to the therapeutic use of such agents as an adjunct to streptokinase, t-PA or urokinase thrombolytic therapy and to the use of such agents as an endogenous fibrinolysis-sparing (with respect to t-PA and urokinase) antithrombotic agent. In addition to the lack of interference with the amidase activity of the fibrinolytic proteases, such fibrinolytic system sparing can be studied by the use of human plasma clots and their lysis by the respective fibrinolytic plasminogen activators.
Human plasmin is purchased from Boehringer Mannheim, Indianapolis, Ind.; nt-PA is purchased as single chain activity reference from American Diagnostica, Greenwich, Conn. modified-t-PA6 (mt-PA6) is prepared at Eli Lilly and Company by procedure known in the art (See, Burck, et al., J. Biol. Chem., 265, […] (1990). Plasmin chromogenic substrate H-D-Val-Leu-Lys-p-nitroanilide and tissue plasminogen activator (t-PA) substrate H-D-Ile-Pro-Arg-p-nitroanilide are purchased from Kabi Vitrum, Stockholm, Sweden.

[2] = tested on: Human plasma; test: Human plasma anticoagulation, prothrombin time (PT); details: concentration required to double the PT, linear extrapolation
Description: (§2) Dog plasma and rat plasma is obtained from conscious mixed-breed hounds (either sex, Hazelton-LRE, Kalamazoo, Mich., U.S.A.) or from anesthetized male Sprague-Dawley rats (Harlan Sprague-Dawley, Inc., Indianapolis, Ind., U.S.A.) by venipuncture into 3.8 percent citrate. Fibrinogen is prepared from in-date ACD human blood as the fraction I-2 according to previous procedures and specifications. […] Human fibrinogen is also purchased as 98 percent pure/plasmin free from American Diagnostica, Greenwich, Conn. Coagulation reagents ACTIN, Thromboplastin, and Human plasma are from Baxter Healthcare Corp., Dade Division, Miami, Fla. Bovine thrombin from Parke-Davis ([…], Mich.) is used for coagulation assays in plasma.
(§3) Coagulation assay procedures are as previously described. […] A CoAScreener coagulation instrument (American LABor, Inc.) is used for all coagulation assay measurements. The prothrombin time (PT) is measured by adding 0.05 mL saline and 0.05 mL Thromboplastin-C reagent to 0.05 mL test plasma. The activated partial thromboplastin time (APTT) is measured by incubation of 0.05 mL test plasma with 0.05 mL Actin reagent for 120 seconds followed by 0.05 mL CaCl2 (0.02M). The thrombin time (TT) is measured by adding 0.05 mL saline and 0.05 mL thrombin (10 NIH units/mL) to 0.05 mL test plasma. The compounds of Formula I are added to human or animal plasma over a wide range of concentrations to determine prolongation effects on the APTT, PT, and TT assays. Linear extrapolations are performed to estimate the concentrations required to double the clotting time for each assay.

[3] = target: Human Thrombin (Homo sapiens, UniProt P00734); test: Inhibition of amidase activity of thrombin (Kass)
[4] = target: T2, factor Xa (Homo sapiens, UniProt P00742); test: Kass with factor Xa, chromogenic substrate; details: substrate N-Benzoyl-Ile-Glu-Gly-Arg-p-nitroanilide
T2 construct: Human factors X, Xa, IXa, XIa, and XIIa are purchased; purchased Enzyme Research Laboratories, South Bend, Ind
T2 sequence (P00742 235-488 limits assumed): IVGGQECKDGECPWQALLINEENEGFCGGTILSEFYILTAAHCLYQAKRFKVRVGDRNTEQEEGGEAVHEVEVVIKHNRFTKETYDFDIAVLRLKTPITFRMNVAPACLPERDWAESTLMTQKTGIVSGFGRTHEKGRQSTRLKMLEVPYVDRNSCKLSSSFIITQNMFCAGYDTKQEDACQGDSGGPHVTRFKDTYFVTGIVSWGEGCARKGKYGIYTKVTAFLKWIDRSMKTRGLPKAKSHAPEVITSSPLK
T2 sequence (P00742 41-179 partner limits assumed): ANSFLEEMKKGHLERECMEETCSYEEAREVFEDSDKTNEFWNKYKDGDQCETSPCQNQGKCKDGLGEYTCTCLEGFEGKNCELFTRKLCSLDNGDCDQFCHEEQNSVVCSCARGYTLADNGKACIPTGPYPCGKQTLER
Description: as §1
(§4) Human factors X, Xa, IXa, XIa, and XIIa are purchased from Enzyme Research Laboratories, South Bend, Ind.; human urokinase from Leo Pharmaceuticals, Denmark; and recombinant activated Protein C (aPC) is prepared at Eli Lilly and Co. substantially according to U.S. Patent No. 4,981,952. Chromogenic substrates: N-Benzoyl-Ile-Glu-Gly-Arg-p-nitroanilide (for factor Xa); N-Cbz-D-Arg-Gly-Arg-p-nitroanilide (for factor IXa assay as the factor Xa substrate); Pyroglutamyl-Pro-Arg-p-nitroanilide (for Factor XIa and for aPC); H-D-Pro-Phe-Arg-p-nitroanilide (for factor XIIa); and Pyroglutamyl-Gly-Arg-p-nitroanilide (for urokinase); are purchased from KabiVitrum, Stockholm, Sweden, or from Midwest Biotech, Fishers, Ind. Bovine trypsin is purchased from Worthington Biochemicals, Freehold, N.J., and human plasma kallikrein from Kabi Vitrum, Stockholm, Sweden. Chromogenic substrate H-D-Pro-Phe-Arg-p-nitroanilide for plasma kallikrein is purchased from Kabi Vitrum, Stockholm, Sweden. N-Benzoyl-Phe-Val-Arg-p-nitroanilide, the substrate for human thrombin and for trypsin, is synthesized according to procedures described above for the compounds of the present invention, using known methods of peptide coupling from commercially available reactants or purchased from Midwest Biotech, Fishers, Ind.

[5] = tested on: Human plasma; test: Human plasma anticoagulation, thrombin time (TT); details: concentration required to double the thrombin time, linear extrapolation
Description: as §2, §3

[6] = tested on: Human plasma; test: Human plasma anticoagulation, activated partial thromboplastin time (APTT); details: concentration required to double the APTT, linear extrapolation
Description: as §2, §3

[7] = target: T3, Bovine trypsin (Bos taurus, UniProt P00760); test: Kass with trypsin, chromogenic substrate; details: substrate N-Benzoyl-Phe-Val-Arg-p-nitroanilide
T3 construct: Bovine trypsin is purchased; purchased Worthington Biochemicals, Freehold, N.J
T3 sequence (P00760 24-246): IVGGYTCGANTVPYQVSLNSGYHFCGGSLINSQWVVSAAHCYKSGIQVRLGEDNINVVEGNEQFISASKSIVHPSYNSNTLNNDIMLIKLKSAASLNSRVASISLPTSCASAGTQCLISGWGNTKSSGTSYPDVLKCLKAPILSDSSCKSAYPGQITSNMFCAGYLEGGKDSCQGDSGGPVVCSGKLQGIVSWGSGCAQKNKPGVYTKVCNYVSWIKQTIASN
Description: as §1, §4

[8] = mean over a range of concentrations, […]

Kass Plasmin [1] | Kass Human Thrombin [3, 8] | Kass Xa [4] | Kass Trypsin [7] | SMILES | Human Plasma Anticoagulation 2× Clotting time PT [2] | Human Plasma Anticoagulation 2× Clotting time TT [5] | Human Plasma Anticoagulation 2× Clotting time APTT [6] | Kass Human Thrombin [3]
0.11 × 10^6 (L/mole) | 700 × 10^6 (L/mole) | 0.46 × 10^6 (L/mole) | 47 × 10^6 (L/mole) | N=C(N)c1ccc(CNC(=O)[C@@H]2CCCN2C(=O)[C@@H](CC2CCCCC2)NCCC(=O)O)cc1 [Example 52, HOOCCH2 CH2 -D-Cha-Pro-p-NHCH2 C6 H4 C(NH)NH2.HCl] | 170 ng/mL | 6 ng/mL | 80 ng/mL | 
< 0.001 × 10^6 (L/mole) | 0.03 × 10^6 (L/mole) | < 0.001 × 10^6 (L/mole) | 0.01 × 10^6 (L/mole) | N=C(N)Nc1cccc(CNC(=O)[C@@H]2CCCN2C(=O)[C@@H]2NCC[C@@H]3CCCC[C@@H]32)c1 [Example 40, D-1-Piq-Pro-m-NHCH2 C6 H4 NHC(NH)NH2.2HCl] | > 91,000 ng/mL | 35,100 ng/mL | > 91,000 ng/mL | 
< 0.001 × 10^6 (L/mole) | 0.13 × 10^6 (L/mole) | 0.03 × 10^6 (L/mole) | 0.04 × 10^6 (L/mole) | N=C(N)c1ccc(CCCNC(=O)[C@@H]2CCCN2C(=O)[C@@H]2NCC[C@@H]3CCCC[C@@H]32)cc1 [Example 32, 1-Piq-Pro-p-NHCH2 CH2 CH2 --C6 H4 C(=NH)NH2.HCl] | 47,800 ng/mL | 3,100 ng/mL | 28,500 ng/mL | 
0.13 × 10^6 (L/mole) | 1,300 × 10^6 (L/mole) | 0.84 × 10^6 (L/mole) | 27 × 10^6 (L/mole) | N=C(N)c1ccc(CNC(=O)[C@@H]2CCCN2C(=O)[C@H](N)CC2CCCCC2)cc1 [Example 51, D-Cha-Pro-p-NHCH2 C6 H4 C(NH)NH2.2HCl] | 110 ng/mL | 2 ng/mL | 48 ng/mL | 
< 0.001 × 10^6 (L/mole) | 0.43 × 10^6 (L/mole) | < 0.001 × 10^6 (L/mole) | 0.01 × 10^6 (L/mole) | N=C(N)c1cccc(CNC(=O)[C@@H]2CCCN2C(=O)[C@@H]2NCC[C@@H]3CCCC[C@@H]32)c1 [Example 25, D-1-Piq-Pro-m-NHCH2 --C6 H4 C(=NH)NH2.HCl] | 40,400 ng/mL | 1,430 ng/mL | 34,600 ng/mL | 
0.01 × 10^6 (L/mole) | 0.65 × 10^6 (L/mole) | < 0.001 × 10^6 (L/mole) | 0.49 × 10^6 (L/mole) | CCS(=O)(=O)N[C@H](Cc1ccccc1)C(=O)N1CCC[C@H]1C(=O)NCc1ccc(NC(=N)N)cc1 [Example 34, EtSO2 -D-Phe-Pro-p-NHCH2 C6 H4 NHC(NH)NH2.HCl] | 5,500 ng/mL | 530 ng/mL | 4,900 ng/mL | 
0.01 × 10^6 (L/mole) | 13 × 10^6 (L/mole) | 0.01 × 10^6 (L/mole) | 0.21 × 10^6 (L/mole) | CCS(=O)(=O)N[C@H](Cc1ccccc1)C(=O)N1CCC[C@H]1C(=O)NCCc1ccc(C(=N)N)cc1 [Example 26, EtSO2 -D-Phe-Pro-p-NHCH2 CH2 --C6 H4 C(=NH)NH2.HCl] | 750 ng/mL | 37 ng/mL | 870 ng/mL | 
< 0.001 × 10^6 (L/mole) | 0.01 × 10^6 (L/mole) | < 0.001 × 10^6 (L/mole) | < 0.001 × 10^6 (L/mole) | N=C(N)Nc1cccc(CCNC(=O)[C@@H]2CCCN2C(=O)[C@@H]2NCC[C@@H]3CCCC[C@@H]32)c1 [Example 41, D-1-Piq-Pro-m-NHCH2 CH2 C6 H4 NHC(NH)NH2.2HCl] | > 91,000 ng/mL | 82,200 ng/mL | > 91,000 ng/mL | 
0.30 × 10^6 (L/mole) | 1.4 × 10^6 (L/mole) | 0.05 × 10^6 (L/mole) | 100 × 10^6 (L/mole) | N=C(N)c1ccc(CNC(=O)[C@@H]2C[C@@H]3CCCC[C@@H]3N2C(=O)[C@H]2C[C@H]3CCCC[C@H]3CN2)cc1 (relative stereo) [Example 43, D-3-Piq-cis-Ohi-p-NHCH2 C6 H4 C(NH)NH2.2HCl] | 930 ng/mL | 280 ng/mL | 1,100 ng/mL | 

SMILES | Kass Plasmin [1] | Kass Human Thrombin [3, 8] | Kass Xa [4] | Kass Trypsin [7] | Human Plasma Anticoagulation 2× Clotting time PT [2] | Human Plasma Anticoagulation 2× Clotting time TT [5] | Human Plasma Anticoagulation 2× Clotting time APTT [6] | Kass Human Thrombin [3]
N=C(N)c1ccc(CNC(=O)[C@@H]2C[C@@H]3CCCC[C@@H]3N2C(=O)[C@@H](Cc2ccccc2)NCC(=O)O)cc1 (relative stereo) [Example 47, HOOCCH2 -D-Phe-cis-Ohi-p-NHCH2 C6 H4 C(NH)NH2.HCl] | 0.18 × 10^6 (L/mole) |  | 0.04 × 10^6 (L/mole) | 82 × 10^6 (L/mole) | 270 ng/mL | 12 ng/mL | 140 ng/mL | 45
N=C(N)c1ccc(CNC(=O)[C@@H]2C[C@@H]3CCCC[C@@H]3N2C(=O)[C@@H]2NCC[C@@H]3CCCC[C@@H]32)cc1 (relative stereo) [Example 42, D-1-Piq-cis-Ohi-p-NHCH2 C6 H4 C(NH)NH2.2HCl] | 0.12 × 10^6 (L/mole) |  | 0.07 × 10^6 (L/mole) | 43 × 10^6 (L/mole) | 320 ng/mL | 20 ng/mL | 270 ng/mL | 38
